From patent US20260223850A1, “SUBSTITUTED PYRROLIDONE COMPOUND, PREPARATION METHOD THEREFOR, COMPOSITION AND APPLICATION THEREOF” (QINGDAO KINGAGROOT CHEMICAL COMPOUND CO., LTD., priority 2023, published 2026)

Assays:
Type in all cases: in vivo
Echinochloa crusgalli = assay: Seedling stage sealing experiment for water-seeding; details: 120 g a.i./ha, 15 days, fresh weight control rate
Echinochloa phyllopogon = assay: as above; details: 120 g a.i./ha, 15 days, fresh weight control rate
Summary of the method: (§1)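 Read-out: 0–9 damage level from fresh-weight control rate (9 = completely dead, 1 = under 10%, 0 = no effect), averaged over triplicates, taken 15 days after spraying. Doses were 120, 60, 30 and 15 g a.i./ha, acetone/water solution, spray tower.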

Leptochloa chinensis = assay: as above; details: 120 g a.i./ha, 15 days, fresh weight control rate
Description: (1) Seedling Stage Sealing Experiment for Water-Seeding:
The activity level criteria for plant damage (i.e., growth control rate) are as follows: • Level 9: completely dead; • Level 8: growth control rate greater than or equal to 90% and less than 100%; • Level 7: growth control rate greater than or equal to 80% and less than 90%; • Level 6: growth control rate greater than or equal to 70% and less than 80%; • Level 5: growth control rate greater than or equal to 50% and less than 70%; • Level 4: growth control rate greater than or equal to 30% and less than 50%; • Level 3: growth control rate greater than or equal to 20% and less than 30%; • Level 2: growth control rate greater than or equal to 10% and less than 20%; • Level 1: growth control rate less than 10%; • Level 0: no effect.
The above growth control rates are fresh weight control rates.
Echinochloa phyllopogon, Digitaria sanguinalis, Huaidao (rice cultivar), etc. were broadcasted on the surface of nutrition bowls filled with soil and fully covered by soil. The foregoing well-prepared nutrition bowls were then placed in a cultivation box with water filled to a suitable height to keep the soil in the nutrition bowls moist. A test compound of the present invention was individually dissolved with acetone, then diluted into solution of a certain concentration using a certain amount of water, and sprayed using a spray tower. The plants were placed on a greenhouse seedbed and cultured for 15 days, and the experimental results were then collected. The compound was applied at 120, 60, 30 and 15 g a.i./ha in triplicate, and the results were averaged.

Huaidao (rice cultivar) = assay: Seedling stage sealing experiment for water-seeding (crop safety); details: 120 g a.i./ha, 15 days, fresh weight control rate; for Huaidao (rice cultivar) plant damage level (growth control rate): spray, seedling stage sealing for water-seeding; for Huaidao (rice cultivar) plant damage level: seedling stage sealing
Summary of the method: as §1

[1] = spray, seedling stage sealing for water-seeding

SMILES | Echinochloa crusgalli activity level (growth control rate) (Echinochloa crusgalli; seedling stage sealing) | Echinochloa phyllopogon activity level (growth control rate) (Echinochloa phyllopogon; seedling stage sealing) | Leptochloa chinensis activity level (growth control rate) (Leptochloa chinensis) | Echinochloa crusgalli activity level (growth control rate) (Echinochloa crusgalli; [1]) | Echinochloa phyllopogon activity level (growth control rate) (Echinochloa phyllopogon; [1]) | Huaidao (rice cultivar) plant damage level (growth control rate) (Huaidao (rice cultivar)) | Huaidao (rice cultivar) plant damage level (Huaidao (rice cultivar))
CN1C[C@H](c2cccc(C(F)(F)F)c2)[C@@H](C(=O)Nc2c(O)nn(C)c2F)C1=O [212′] | 9 | 9 | 9 |  |  |  | 
Cc1cc(C)cc(C2CN(C)C(=O)C2C(=O)Nc2c(O)nn(C)c2F)c1 (stereo not drawn) [Compound 286] | 9 | 7 (Level 7: growth control rate greater than or equal to 80% and less than 90%) | 9 |  |  |  | 
CN1C[C@H](c2cccc(Br)c2)[C@@H](C(=O)Nc2cnn(C)c2Cl)C1=O [126′] | 9 | 9 | 9 |  |  |  | 
CN1CC(c2cccc(OCC3CC3)c2)C(C(=O)Nc2cnn(C)c2Cl)C1=O (stereo not drawn) [Compound 39] | 6 (Level 6: growth control rate greater than or equal to 70% and less than 80%) |  | 9 |  |  |  | 
COc1cc([C@H]2CN(C)C(=O)[C@@H]2C(=O)Nc2cnn(C)c2Cl)ccc1C(F)(F)F [316′] | 6 (Level 6: growth control rate greater than or equal to 70% and less than 80%) |  | 6 (Level 6: growth control rate greater than or equal to 70% and less than 80%) |  |  |  | 
C=Cc1cccc([C@H]2CN(C)C(=O)[C@@H]2C(=O)Nc2cnn(C)c2Cl)c1 [149′] | 5 (Level 5: growth control rate greater than or equal to 50% and less than 70%) |  | 5 (Level 5: growth control rate greater than or equal to 50% and less than 70%) |  |  |  | 
CN1C[C@H](c2cccc(C(F)(F)F)c2)[C@@H](C(=O)Nc2cnn(CC3CC3)c2Cl)C1=O [165′] |  |  | 6 (Level 6: growth control rate greater than or equal to 70% and less than 80%) |  |  |  | 
CN1C[C@H](c2cccc(C(F)(F)F)c2)[C@@H](C(=O)Nc2cnn(C(C)(C)C)c2Cl)C1=O [157′] | 5 (Level 5: growth control rate greater than or equal to 50% and less than 70%) |  | 7 (Level 7: growth control rate greater than or equal to 80% and less than 90%) |  |  |  | 
CN1CC(c2cccc(OC3CCCC3)c2)C(C(=O)Nc2cnn(C)c2Cl)C1=O (stereo not drawn) [Compound 41] | 5 (Level 5: growth control rate greater than or equal to 50% and less than 70%) |  | 6 (Level 6: growth control rate greater than or equal to 70% and less than 80%) |  |  |  | 
CN1C[C@H](c2cccc(Oc3ccccc3)c2)[C@@H](C(=O)Nc2cnn(C)c2Cl)C1=O [50′] |  |  | 6 (Level 6: growth control rate greater than or equal to 70% and less than 80%) |  |  |  | 
Cn1ncc(NC(=O)C2C(=O)NCC2c2cccc(C(F)(F)F)c2)c1Cl (stereo not drawn) [Compound 100] | 6 (Level 6: growth control rate greater than or equal to 70% and less than 80%) |  | 6 (Level 6: growth control rate greater than or equal to 70% and less than 80%) |  |  |  | 
CN1C[C@H](c2cc(C(F)(F)F)cc(C(F)(F)F)c2)[C@@H](C(=O)Nc2cnn(C)c2C2CC2)C1=O [510′] |  |  |  | 9 | 9 | 2 (Level 2: growth control rate greater than or equal to 10% and less than 20%) | 
CN1C[C@H](c2cc(F)cc(C(F)(F)F)c2)[C@@H](C(=O)Nc2cnn(C)c2Cl)C1=O [67′] | 9 | 8 (Level 8: growth control rate greater than or equal to 90% and less than 100%) |  |  |  |  | 1 (Level 1: growth control rate less than 10%)
C=C(C)c1c(NC(=O)[C@H]2C(=O)N(C)C[C@@H]2c2cc(C)cc(C)c2)cnn1C [276′] | 9 | 6 (Level 6: growth control rate greater than or equal to 70% and less than 80%) |  |  |  |  | 0
CN1C[C@H](c2cc(Br)cc(C(F)(F)F)c2)[C@@H](C(=O)Nc2cnn(C)c2C2CC2)C1=O [514′] |  |  |  | 9 | 6 (Level 6: growth control rate greater than or equal to 70% and less than 80%) | 0 | 
Cc1csc([C@H]2CN(C)C(=O)[C@@H]2C(=O)Nc2cnn(C)c2Cl)c1 [520′] |  |  |  | 9 | 7 (Level 7: growth control rate greater than or equal to 80% and less than 90%) | 0 | 

SMILES | Echinochloa crusgalli activity level (growth control rate) (Echinochloa crusgalli; seedling stage sealing) | Echinochloa phyllopogon activity level (growth control rate) (Echinochloa phyllopogon; seedling stage sealing) | Leptochloa chinensis activity level (growth control rate) (Leptochloa chinensis) | Echinochloa crusgalli activity level (growth control rate) (Echinochloa crusgalli; [1]) | Echinochloa phyllopogon activity level (growth control rate) (Echinochloa phyllopogon; [1]) | Huaidao (rice cultivar) plant damage level (growth control rate) (Huaidao (rice cultivar)) | Huaidao (rice cultivar) plant damage level (Huaidao (rice cultivar))
Cc1cc([C@H]2CN(C)C(=O)[C@@H]2C(=O)Nc2cnn(C)c2Cl)cc(C)c1C [447′] |  |  |  | 9 | 9 | 0 | 
COc1cc(OC)cc([C@H]2CN(C)C(=O)[C@@H]2C(=O)Nc2cnn(C)c2C2CC2)c1 [301′] |  |  | 6 (Level 6: growth control rate greater than or equal to 70% and less than 80%) |  |  |  | 
Cc1cc(C)cc([C@H]2CN(C)C(=O)[C@@H]2C(=O)Nc2cnn(C)c2I)c1 [426′] | 9 | 9 |  |  |  |  | 0
CN1C[C@H](c2cccc3c2OC(F)(F)O3)[C@@H](C(=O)Nc2cnn(C)c2Cl)C1=O [450′] |  |  |  | 9 | 9 | 0 | 
CCc1cc(C)cc([C@H]2CN(C)C(=O)[C@@H]2C(=O)Nc2cnn(C(F)F)c2Cl)c1 [438′] | 9 | 9 |  |  |  |  | 2 (Level 2: growth control rate greater than or equal to 10% and less than 20%)
Cc1cccc([C@H]2CN(C)C(=O)[C@@H]2C(=O)Nc2cnn(C)c2C(F)(F)F)c1 [136′] | 9 | 9 |  |  |  |  | 0
CN1C[C@H](c2cccc(C(F)(F)F)c2)[C@@H](C(=O)Nc2cnn(C)c2C#N)C1=O [187′] | 9 | 9 |  |  |  |  | 0
Cc1cccc([C@H]2CN(C)C(=O)[C@@H]2C(=O)Nc2cnn(C)c2F)c1 [388′] | 9 | 6 (Level 6: growth control rate greater than or equal to 70% and less than 80%) |  |  |  |  | 0
COc1c(C(F)(F)F)ccc([C@H]2CN(C)C(=O)[C@@H]2C(=O)Nc2cnn(C)c2Cl)c1F [446′] |  |  |  | 9 | 9 | 0 | 
Cc1cc(C)cc([C@H]2CN(C)C(=O)[C@@H]2C(=O)Nc2cnn(C(C)C)c2Cl)c1 [419′] | 9 | 9 |  |  |  |  | 0
CCn1ncc(NC(=O)[C@H]2C(=O)N(C)C[C@@H]2c2cccc(C(F)(F)F)c2)c1C1CC1 [408′] | 9 | 9 |  |  |  |  | 0
COC(=O)c1c(NC(=O)[C@H]2C(=O)N(C)C[C@@H]2c2cc(C)cc(C)c2)cnn1C [433′] | 9 | 6 (Level 6: growth control rate greater than or equal to 70% and less than 80%) |  |  |  |  | 0
Cc1cccc([C@H]2CN(C)C(=O)[C@@H]2C(=O)Nc2cnn(C(C)C)c2C2CC2)c1 [138′] | 7 (Level 7: growth control rate greater than or equal to 80% and less than 90%) | 6 (Level 6: growth control rate greater than or equal to 70% and less than 80%) |  |  |  |  | 0
Cc1cccc([C@H]2CN(C)C(=O)[C@@H]2C(=O)Nc2cnn(C(F)F)c2C)c1 [465′] |  |  |  | 9 | 9 | 2 (Level 2: growth control rate greater than or equal to 10% and less than 20%) | 
C=CCn1ncc(NC(=O)[C@H]2C(=O)N(C)C[C@@H]2c2cccc(C)c2)c1Cl [381′] | 9 | 6 (Level 6: growth control rate greater than or equal to 70% and less than 80%) |  |  |  |  | 0
